Assay results: patent US11739074B2, “Ras inhibitors” (Revolution Medicines, Inc., priority 2019, dated 2023)
Where two headings read alike, the source gives them in different places.

How the values were obtained:
Format in all cases: cell-based
NCI-H358 (K-Ras G12C) = test: CellTiter-Glo cell viability assay, H358; details: Homo sapiens, NCI-H358, 120 h
Description: Determination of Cell Viability in RAS Mutant Cancer Cell Lines
Protocol: CellTiter-Glo® Cell Viability Assay
Note—The following protocol describes a procedure for monitoring cell viability of K-Ras mutant cancer cell lines in response to a compound of the invention. Other RAS isoforms may be employed, though the number of cells to be seeded will vary based on cell line used.
Test compounds (132.5 nL) were directly dispensed into the assay plates containing cells. […] On day 5, assay plates and their contents were equilibrated to room temperature for approximately 30 minutes. […] Luminescence was measured using the PerkinElmer Enspire. Data were normalized by the following: (Sample signal/Avg. DMSO)*100. The data were fit using a four-parameter logistic fit.

AsPC-1 (K-Ras G12D) [1] = test: Potency assay: pERK in AsPC-1 cells; details: Homo sapiens
AsPC-1 (K-Ras G12D) [2] = test: CellTiter-Glo cell viability assay, AsPC-1; details: Homo sapiens, ASPC1, 120 h
How it was run: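 Direct compound addition to plated cells; 5-day exposure; ~30 min RT equilibration; CellTiter-Glo luminescence. Normalization: (sample/avg DMSO)*100; 4-parameter logistic curve fit.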

[3] = NCI-H358, K-Ras G12C, 5-day treatment, read-out: H358 Cell Viability IC50
[4] = ASPC1, AsPC-1 cells, K-Ras G12D, read-out: pERK EC50 (AsPC-1 KRAS G12D)
[5] = AsPC-1, K-Ras G12D, 5-day treatment, read-out: AsPC-1 Cell Viability IC50
[6] = read-out: H358 Cell Viability IC50, NCI-H358, K-Ras G12C, 5-day treatment
[7] = ASPC1, read-out: pERK EC50 (AsPC-1 KRAS G12D)
[8] = read-out: AsPC-1 Cell Viability IC50, AsPC-1, K-Ras G12D, 5-day treatment

SMILES | IC50 (NCI-H358 (K-Ras G12C); [3]) [nM] | EC50 (AsPC-1 (K-Ras G12D) [1]; [4]) [nM] | IC50 (AsPC-1 (K-Ras G12D) [2]; [5]) [nM] | IC50 (NCI-H358 (K-Ras G12C); [6]) [nM] | EC50 (AsPC-1 (K-Ras G12D) [1]; [7]) [nM] | IC50 (AsPC-1 (K-Ras G12D) [2]; [8]) [nM]
CCn1c(-c2cccnc2[C@H](C)OC)c2c3cc(ccc31)-c1cc(O)cc(c1)C[C@H](NC(=O)[C@H](C(C)C)N(C)C(=O)[C@H]1CCN(C(=O)[C@H]3CN3)C1)C(=O)N1CCC[C@H](N1)C(=O)OCC(C)(C)C2 (single isomer, unassigned) [Compound 43A] | < 10 | < 5000 | 100 to 1000 | – | – | –
CCn1c(-c2cccnc2[C@H](C)OC)c2c3cc(ccc31)-c1cc(O)cc(c1)C[C@H](NC(=O)[C@H](C(C)C)N(C)C(=O)[C@H]1CCN(S(=O)(=O)[C@@H]3CN3C)C1)C(=O)N1CCC[C@H](N1)C(=O)OCC(C)(C)C2 (single isomer, unassigned) [Compound 56] | 100 to 1000 | < 5000 | 1000 to 10000 | – | – | –
CCn1c(-c2cccnc2[C@H](C)OC)c2c3cc(ccc31)-c1cc(O)cc(c1)C[C@H](NC(=O)[C@H](C1CCCC1)N(C)C(=O)CN(C)C(=O)[C@H]1N[C@H]1C1(OC)CC1)C(=O)N1CCC[C@H](N1)C(=O)OCC(C)(C)C2 (single isomer, unassigned) [Compound 322] | 10 to 100 | < 5000 | 1000 to 10000 | – | – | –
CCn1c(-c2cccnc2[C@H](C)OC)c2c3cc(ccc31)-c1cc(O)cc(c1)C[C@H](NC(=O)[C@H](C1CCCC1)N(C)C(=O)CN(C)C(=O)[C@@H]1N[C@@H]1C1(OC)CC1)C(=O)N1CCC[C@H](N1)C(=O)OCC(C)(C)C2 (single isomer, unassigned) [Compound 323] | 10 to 100 | < 5000 | 100 to 1000 | – | – | –
CCn1c(-c2cnccc2COC)c2c3cc(ccc31)-c1cc(O)cc(c1)C[C@H](NC(=O)[C@H](C(C)C)N(C)C(=O)CN(C)C(=O)[C@@H]1N[C@H]1c1ccccc1)C(=O)N1CCC[C@H](N1)C(=O)OCC(C)(C)C2 [Compound 11] | – | – | – | 100 to 1000 | < 5000 | 1000 to 10000
CCn1c(-c2cnccc2COC)c2c3cc(ccc31)-c1cc(O)cc(c1)C[C@H](NC(=O)[C@H](C(C)C)N(C)C(=O)CN(C)C(=O)[C@H]1N[C@@H]1c1ccccc1)C(=O)N1CCC[C@H](N1)C(=O)OCC(C)(C)C2 [Compound 12] | – | – | – | 100 to 1000 | < 5000 | 100 to 1000
CCn1c(-c2cccnc2[C@H](C)OC)c2c3cc(ccc31)-c1cc(O)cc(c1)C[C@H](NC(=O)[C@H](C(C)C)N(C)C(=O)CN(C)C(=O)[C@H]1CN1)C(=O)N1CCC[C@H](N1)C(=O)OCC(C)(C)C2 [Compound 42A] | – | – | – | < 10 | < 5000 | 100 to 1000
CCn1c(-c2cccnc2[C@H](C)OC)c2c3cc(ccc31)-c1cc(O)cc(c1)C[C@H](NC(=O)[C@H](C(C)C)N1CCC3(CCN(C(=O)[C@H]4CN4)C3)C1=O)C(=O)N1CCC[C@H](N1)C(=O)OCC(C)(C)C2 (some centres unmarked) [Compound 59] | < 10 | < 5000 | 100 to 1000 | – | – | –
CCn1c(-c2cccnc2[C@H](C)OC)c2c3cc(ccc31)-c1cccc(c1)C[C@H](NC(=O)[C@H](C(C)C)N(C)C(=O)[C@H]1C[C@H](N=C=NCc3ccccc3OC)C1)C(=O)N1CCC[C@H](N1)C(=O)OCC(C)(C)C2 [Compound 77] | 100 to 1000 | < 5000 | 100 to 1000 | – | – | –
CCn1c(-c2cccnc2[C@H](C)OC)c2c3cc(ccc31)-c1cc(O)cc(c1)C[C@H](NC(=O)[C@H](C(C)C)N(C)C(=O)c1ncc(NC(=O)[C@@H]3CN3)n1C)C(=O)N1CCC[C@H](N1)C(=O)OCC(C)(C)C2 [Compound 83] | 10 to 100 | < 5000 | 1000 to 10000 | – | – | –
CCn1c(-c2cccnc2[C@H](C)OC)c2c3cc(ccc31)-c1cc(O)cc(c1)C[C@H](NC(=O)[C@H](C(C)C)N(C)C(=O)CN(C)C(=O)[C@@H]1N[C@H]1COC)C(=O)N1CCC[C@H](N1)C(=O)OCC(C)(C)C2 [Compound 85] | – | – | – | 10 to 100 | < 5000 | 1000 to 10000
CCn1c(-c2cccnc2[C@H](C)OC)c2c3cc(ccc31)-c1cc(O)cc(c1)C[C@H](NC(=O)[C@H](C(C)C)N(C)C(=O)CN(C)C(=O)C1CN1CCOC)C(=O)N1CCC[C@H](N1)C(=O)OCC(C)(C)C2 (some centres unmarked) [Compound 90] | – | – | – | < 10 | < 5000 | 100 to 1000
CCn1c(-c2cnccc2COC)c2c3cc(ccc31)-c1cc(O)cc(c1)C[C@H](NC(=O)[C@H](C(C)C)N(C)C(=O)CN(C)C(=O)[C@@H]1N[C@H]1c1ccc(OC)cc1)C(=O)N1CCC[C@H](N1)C(=O)OCC(C)(C)C2 [Compound 96] | – | – | – | 1000 to 10000 | < 5000 | 1000 to 10000
CCn1c(-c2cccnc2[C@H](C)OC)c2c3cc(ccc31)-c1cc(O)cc(c1)C[C@H](NC(=O)[C@H](C(C)C)N(C)C(=O)[C@@H]1CN1)C(=O)N1CCC[C@H](N1)C(=O)OCC(C)(C)C2 [Compound 100] | 10 to 100 | < 5000 | 100 to 1000 | – | – | –
CCn1c(-c2cccnc2[C@H](C)OC)c2c3cc(ccc31)-c1cc(O)cc(c1)C[C@H](NC(=O)[C@H](C(C)C)N(C)C(=O)[C@H](C)N(C)C(=O)[C@H]1CN1)C(=O)N1CCC[C@H](N1)C(=O)OCC(C)(C)C2 [Compound 102] | – | – | – | 10 to 100 | < 5000 | 100 to 1000
CCn1c(-c2cnccc2COC)c2c3cc(ccc31)-c1cc(O)cc(c1)C[C@H](NC(=O)[C@H](C(C)C)N(C)C(=O)CN(C)C(=O)[C@@H]1N[C@@H]1C1CC1)C(=O)N1CCC[C@H](N1)C(=O)OCC(C)(C)C2 [Compound 103] | – | – | – | 100 to 1000 | < 5000 | 100 to 1000
CCn1c(-c2cccnc2[C@H](C)OC)c2c3cc(ccc31)-c1cccc(c1)C[C@H](NC(=O)[C@H](C(C)C)N(C)C(=O)CN(C)C(=O)[C@H]1CN1)C(=O)N1CCC[C@H](N1)C(=O)OCC(C)(C)C2 [Compound 107] | – | – | – | 100 to 1000 | < 5000 | 1000 to 10000
CCn1c(-c2cccnc2[C@H](C)OC)c2c3cc(ccc31)-c1csc(n1)C[C@H](NC(=O)[C@H](C1CCCC1)N(C)C(=O)CN(C)C(=O)[C@H]1CN1)C(=O)N1CCC[C@H](N1)C(=O)OCC(C)(C)C2 [Compound 132] | 10 to 100 | < 5000 | 1000 to 10000 | – | – | –
CCn1c(-c2cccnc2[C@H](C)OC)c2c3cc(ccc31)-c1cc(O)cc(c1)C[C@H](NC(=O)[C@H](C(C)C)N(C)C(=O)CN(C)C(=O)[C@H]1N[C@@H]1C1CC1)C(=O)N1CCC[C@H](N1)C(=O)OCC(C)(C)C2 [Compound 136] | – | – | – | < 10 | < 5000 | –
CCn1c(-c2cccnc2[C@H](C)OC)c2c3cc(ccc31)-c1cc(O)cc(c1)C[C@H](NC(=O)[C@H](C(C)C)N(C)C(=O)CN(C)C(=O)[C@@H]1CN1CCCOC)C(=O)N1CCC[C@H](N1)C(=O)OCC(C)(C)C2 (some centres unmarked) [Compound 137] | – | – | – | < 10 | < 5000 | 100 to 1000
CCn1c(-c2cccnc2[C@H](C)OC)c2c3cc(ccc31)-c1cc(O)cc(c1)C[C@H](NC(=O)[C@H](C(C)C)N(C)C(=O)CNC(=O)[C@@H]1N[C@@H]1C1CC1)C(=O)N1CCC[C@H](N1)C(=O)OCC(C)(C)C2 [Compound 141] | – | – | – | 100 to 1000 | < 5000 | 100 to 1000
CCn1c(-c2cccnc2[C@H](C)OC)c2c3cc(ccc31)-c1cc(O)cc(c1)C[C@H](NC(=O)[C@H](C(C)C)N(C)C(=O)CN(C)C(=O)[C@H]1CN1C(C)C)C(=O)N1CCC[C@H](N1)C(=O)OCC(C)(C)C2 (some centres unmarked) [Compound 142] | – | – | – | < 10 | < 5000 | 100 to 1000
CCn1c(-c2cccnc2[C@H](C)OC)c2c3cc(ccc31)-c1cc(O)cc(c1)C[C@H](NC(=O)[C@H](C(C)C)N1CC[C@]3(CCN(C(=O)[C@H]4CN4)C3)C1=O)C(=O)N1CCC[C@H](N1)C(=O)OCC(C)(C)C2 [Compound 146] | < 10 | < 5000 | 100 to 1000 | – | – | –
CCn1c(-c2cccnc2[C@H](C)OC)c2c3cc(ccc31)-c1cc(O)cc(c1)C[C@H](NC(=O)[C@H](C(C)C)N(C)C(=O)CN(C)C(=O)[C@H]1CN1CCOC)C(=O)N1CCC[C@H](N1)C(=O)OCC(C)(C)C2 (some centres unmarked) [Compound 159] | – | – | – | < 10 | – | 100 to 1000
CCn1c(-c2cccnc2[C@H](C)OC)c2c3cc(ccc31)-c1cc(O)cc(c1)C[C@H](NC(=O)[C@H](C(C)C)N(C)C(=O)[C@@]1(C)CCCN1C(=O)[C@@H]1CN1)C(=O)N1CCC[C@H](N1)C(=O)OCC(C)(C)C2 [Compound 241] | < 10 | – | 100 to 1000 | – | – | –
CCn1c(-c2cnccc2COC)c2c3cc(ccc31)-c1cc(O)cc(c1)C[C@H](NC(=O)[C@H](C(C)C)N(C)C(=O)[C@H]1CCN(C(=O)[C@@H]3CO3)C1)C(=O)N1CCC[C@H](N1)C(=O)OCC(C)(C)C2 [Example 31, (3S)—N-((2S)-1-(((6^3S,4S)-1^1-ethyl-2^5-hydroxy-1^2-(4-(methoxymethyl)pyridin-3-yl)-10,10-dimethyl-5,7-dioxo-6^1,6^2,6^3,6^4,6^5,6^6-hexahydro-1^1H-8-oxa-1(5,3)-indola-6(1,3)-pyridazina-2(1,3)-benzenacycloundecaphane-4-yl)amino)-3-methyl-1-oxobutan-2-yl)-N-methyl-1-((S)-oxirane-2-carbonyl)pyrrolidine-3-carboxamide] | 1000 to 10000 | – | > 10000 | – | – | –
